Source: patent US7098334B2 (Industrial Research Limited, priority 2002, dated 2006)

Assays:
[1] = biological target: MTAN (Escherichia coli, UniProt P0AF12); assay: Enzyme inhibition assay, MTAN (slow-onset inhibition constants); assay type: biochemical; details: MTAN
Description: Ki as shown in Tables 1 and 2 is the initial inhibition constant formed by the enzyme-inhibitor complex, and Ki* is the equilibrium dissociation constant for inhibition that is observed following a period of slow-onset, tight binding inhibition. Ki* is the biologically effective constant.
Enzyme assays were conducted to assess the effectiveness of selected compounds of the invention as inhibitors of MTAP and MTAN.
Inhibitors.—Inhibitor concentrations were determined by the UV absorbance spectrum using the published millimolar extinction coefficients for 9-dazadenine of 8.5 at 275 nm at pH 7.0.
Assays.—The direct spectrophotometric assay for the conversion of MTA into adenine was measured as the decrease in absorbance at 274 nm. At 274 nm, Δε between MTA and adenine is at a maximum and produces a spectral change of 1.6 absorbance units/cm/mM (DeWolf, W. E. Jr., Fullin, F. A., and Schramm, V. L. (1979) J. Biol. Chem. 254, 10868–10875)
Slow-Onset Inhibition and Inhibition Constants.—The kinetics for slow onset inhibition and the Ki measurement was carried out by adding a known concentration of enzyme (1–5 nM) to a reaction mixture containing a substrate concentration of 200 μM. This concentration corresponds to an OD of 0.7–1.1 at […]. The formation of product was monitored as a decrease in absorbance at 274 nm. Conditions for Ki* determination used high concentrations of substrate. Two controls, one having no inhibitor and the other no enzyme were included in the experiment. The Ki values MTAP for the various compounds were calculated by fitting in the ratio of initial rates in the presence of inhibitor to without any inhibitor versus the inhibitor concentration, for the known Km and substrate concentration into the following expression.
Where Vo′ is the rate in the presence of inhibitor • Vo rate in the absence of inhibitor • [I] inhibitor concentration • And [S] is the substrate concentration
And the Ki* was calculated by fitting to the following expression
Where Vs′ is the steady-state rate following attainment of equilibrium in the presence inhibitor, and Vs is the steady-state rate in the control having no inhibitor. Both these equations are valid for competitive type inhibition.

[2] = biological target: T1, mouse liver MTAP (Mus musculus, UniProt Q9CQ65); assay: MTAP activity in liver extracts of treated mice; assay type: in vivo
T1 construct: from tissue; host or cells: mouse liver protein extract
T1 sequence (Q9CQ65 1-283): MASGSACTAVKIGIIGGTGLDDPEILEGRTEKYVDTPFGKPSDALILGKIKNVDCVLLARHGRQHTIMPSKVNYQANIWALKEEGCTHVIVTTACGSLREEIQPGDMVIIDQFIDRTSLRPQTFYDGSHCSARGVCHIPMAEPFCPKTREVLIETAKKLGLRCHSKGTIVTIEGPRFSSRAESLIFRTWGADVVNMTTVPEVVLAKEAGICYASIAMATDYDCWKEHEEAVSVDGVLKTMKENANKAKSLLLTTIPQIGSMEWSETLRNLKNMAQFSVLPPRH
Description: (§1) Following 30 to 60 min, blood was collected or mice were sacrificed and the liver removed for tissue analysis. MTAP activity in mouse blood was measured by the conversion of radioactive MTA to radioactive 5-methylthio-α-D-ribose 1-phosphate (MTR-1P). The assay mixture contained 50 mM phosphate buffer, 1 mM dithiothreitol, 26 μM [5′-^14C]MTA with specific radioactivity of 2 μCi/μmole, 0.5% triton X-100, and the desired amount of tissue sample, in a total volume of 100 μL. Reactions were stopped at various times by the addition of perchloric acid to decrease the pH to 2.0. The protein precipitate was removed by centrifugation, and the supernatant was neutralized to near pH 7 before being placed on a charcoal column. The column was eluted with buffer near pH 7. The product MTR-1P elutes, while unreacted [5′-^14C]MTA remains on the column. The amount of MTAP activity from control and treated mice is compared.

[3] = biological target: T2, MTAP activity in mouse blood (Mus musculus, UniProt Q9CQ65); assay: MTAP activity in blood of treated mice; assay type: in vivo; details: interperitoneal injection of 10 micromoles; blood sampled 30 min following injection
T2 construct: from tissue; host or cells: mouse blood
T2 sequence (Q9CQ65 1-283): T1 sequence (Q9CQ65 1-283)
Description: as §1, with “5′-Methylthio-Immucillin-A (5′-methylthio-ImmA) (10 micromoles) was administered to mice orally, by interperitoneal injection or by intravenous injection. Following” for “Following”

[4] = oral administration of 10 μmoles

MTAN, sequence (P0AF12 whole entry): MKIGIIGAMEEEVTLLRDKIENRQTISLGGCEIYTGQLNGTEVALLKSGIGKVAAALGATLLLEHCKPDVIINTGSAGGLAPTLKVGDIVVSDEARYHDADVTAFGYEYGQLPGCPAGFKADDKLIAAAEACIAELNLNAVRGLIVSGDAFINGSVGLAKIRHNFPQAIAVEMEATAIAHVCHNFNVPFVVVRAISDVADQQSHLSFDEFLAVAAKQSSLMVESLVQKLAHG

SMILES: CSC[C@H]1N[C@@H](c2c[nH]c3c(N)ncnc23)C(O)[C@H]1O (some centres unmarked) [5′-methylthio-ImmA]
- Ki ([1]; Ki*, equilibrium dissociation constant after slow-onset, tight binding inhibition): 0.077 ± 0.02 nM
- Ki ([1]; Ki, initial inhibition constant): 0.13 ± 0.012 nM
- Ki* ([1]; equilibrium dissociation constant after slow-onset, tight binding inhibition): in the pM range
- reduction of MTAP activity of liver extract ([2]; intraperitoneal injection of 0.1 micromole): 70%
- reduction of MTAP activity of liver extract ([2]; intraperitoneal injection of 1.0 micromole): 77%
- MTAP activity in liver extracts (in words) ([2]; intravenous injection): no detectable MTAP activity
- inhibition of liver MTAP ([2]; intravenous injection): > 95%
- inhibition of liver MTAP [2, 4]: 90%
- oral availability to MTAP inside tissues (in words) [2, 4]: orally available
- rate of conversion of MTA to products by MTAP in extracts of liver ([2]; oral administration of 10 μmoles, control 1.0): 0.09 nMole/min/mg of liver protein extract
- inhibition of MTAP in mouse blood compared to control blood [3]: > 90%
